How the values were obtained:
MKK4 [1] = target: T1, MKK4 (Homo sapiens, UniProt P45985); test: KINOMEscan competition binding assay, MKK4; conditions: residual percent of control binding (PoC) at 100 nM
T1 construct: S84/D399; host or cells: HEK-293
T1 sequence (P45985 84-399): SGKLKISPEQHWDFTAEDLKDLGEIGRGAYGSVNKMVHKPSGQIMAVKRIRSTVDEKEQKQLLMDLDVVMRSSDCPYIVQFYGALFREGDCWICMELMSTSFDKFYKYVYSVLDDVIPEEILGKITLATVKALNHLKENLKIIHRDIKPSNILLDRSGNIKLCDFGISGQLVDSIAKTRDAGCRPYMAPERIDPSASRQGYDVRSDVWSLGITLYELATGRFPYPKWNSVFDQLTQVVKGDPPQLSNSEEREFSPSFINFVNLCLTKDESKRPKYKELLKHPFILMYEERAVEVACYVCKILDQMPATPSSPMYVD
In short: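 Tested at 100 nM and reported as percent of control binding (PoC). MKK4 was produced in HEK-293 cells and DNA-tagged. Displacement from ligand-coated, blocked beads was read by qPCR of eluted kinase.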

BRaf [2] = target: T2, BRaf (Homo sapiens, UniProt P15056); test: KINOMEscan competition binding assay, BRaf; conditions: ratio PoC (off-target)/PoC (MKK4)
T2 construct: purchased ProQinase GmbH, Freiburg, Germany (33PanQinase Assay Service)
T2 sequence (P15056 whole entry, species assumed): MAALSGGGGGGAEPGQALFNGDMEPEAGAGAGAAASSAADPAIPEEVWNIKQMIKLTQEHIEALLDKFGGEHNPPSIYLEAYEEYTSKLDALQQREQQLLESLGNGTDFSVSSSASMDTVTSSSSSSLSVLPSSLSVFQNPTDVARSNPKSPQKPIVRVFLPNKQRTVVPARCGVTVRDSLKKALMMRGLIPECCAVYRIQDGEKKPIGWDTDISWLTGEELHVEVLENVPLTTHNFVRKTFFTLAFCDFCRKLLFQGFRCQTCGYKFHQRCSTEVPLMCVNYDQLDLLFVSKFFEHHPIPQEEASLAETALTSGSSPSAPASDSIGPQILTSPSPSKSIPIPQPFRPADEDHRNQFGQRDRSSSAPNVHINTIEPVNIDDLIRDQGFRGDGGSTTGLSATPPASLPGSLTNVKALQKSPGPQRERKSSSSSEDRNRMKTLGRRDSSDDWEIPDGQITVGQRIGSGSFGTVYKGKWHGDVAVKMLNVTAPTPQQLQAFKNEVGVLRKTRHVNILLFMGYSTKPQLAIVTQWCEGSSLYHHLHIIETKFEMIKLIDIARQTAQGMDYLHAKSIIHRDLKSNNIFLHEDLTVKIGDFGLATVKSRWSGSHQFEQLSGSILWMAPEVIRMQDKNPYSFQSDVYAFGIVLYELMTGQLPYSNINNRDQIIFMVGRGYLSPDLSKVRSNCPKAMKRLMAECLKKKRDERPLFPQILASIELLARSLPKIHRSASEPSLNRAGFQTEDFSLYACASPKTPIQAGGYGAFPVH
In short: (§1)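 DNA-tagged kinases expressed in HEK-293 cells compete between immobilized ligand on blocked beads and test compound at 100 nM; kinase retained on beads quantified by qPCR of the tag.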

MKK4 [3] = target: T3, MKK4 (Homo sapiens, UniProt P45985); test: 33PanQinase enzyme assay, MKK4; type: biochemical; conditions: assay 'IC50'; read-out: Potency MKK4 (IC50)
T3 construct: purchased ProQinase GmbH, Freiburg, Germany (33PanQinase Assay Service)
T3 sequence (P45985 1-399): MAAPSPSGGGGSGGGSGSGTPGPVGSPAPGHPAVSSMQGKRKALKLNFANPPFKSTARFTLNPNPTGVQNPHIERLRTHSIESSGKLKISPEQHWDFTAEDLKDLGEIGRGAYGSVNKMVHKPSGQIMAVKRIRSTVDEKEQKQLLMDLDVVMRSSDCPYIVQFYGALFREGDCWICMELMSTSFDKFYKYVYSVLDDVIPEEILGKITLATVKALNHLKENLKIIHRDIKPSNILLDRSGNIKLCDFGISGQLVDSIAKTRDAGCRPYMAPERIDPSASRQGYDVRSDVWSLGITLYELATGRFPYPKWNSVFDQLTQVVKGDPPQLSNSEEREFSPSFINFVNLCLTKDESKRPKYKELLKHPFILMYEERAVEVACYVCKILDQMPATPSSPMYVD
In short: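 Inhibition measured as 33Pi transfer to substrate after a 60-min, 30 °C reaction, acid-stopped and scintillation-counted.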

BRaf [4] = target: T2, BRaf; test: 33PanQinase enzyme assay, BRaf; type: biochemical; conditions: ratio IC50(BRaf)/IC50(MKK4)
In short: (§2)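 Off-target selectivity is the ratio IC50(off-target)/IC50(MKK4), with IC50 values from least-squares fitting and single-point data as % residual activity. Reactions of enzyme/substrate mix, ATP and compound ran 60 min at 30° C before H3PO4 stop; ^33P incorporation read on a scintillation counter.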

MKK7 [5] = target: T4, MKK7 (Homo sapiens, UniProt O14733); test: KINOMEscan competition binding assay, MKK7; parameters: M1/R419; host or cells: HEK-293; conditions: ratio PoC (off-target)/PoC (MKK4)
T4 sequence (O14733 1-419): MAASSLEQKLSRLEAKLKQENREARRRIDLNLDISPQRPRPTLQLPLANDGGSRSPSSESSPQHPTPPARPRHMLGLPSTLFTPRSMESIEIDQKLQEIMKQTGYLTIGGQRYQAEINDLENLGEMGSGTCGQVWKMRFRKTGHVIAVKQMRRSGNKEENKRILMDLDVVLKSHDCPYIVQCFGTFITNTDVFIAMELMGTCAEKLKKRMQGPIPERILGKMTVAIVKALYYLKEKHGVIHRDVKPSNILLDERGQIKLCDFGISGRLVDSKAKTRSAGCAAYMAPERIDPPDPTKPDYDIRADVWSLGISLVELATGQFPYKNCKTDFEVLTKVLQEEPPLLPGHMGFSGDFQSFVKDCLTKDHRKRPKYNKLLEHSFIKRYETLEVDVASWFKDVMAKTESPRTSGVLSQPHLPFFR
In short: as §1

JNK1 [6] = target: T5, JNK1 (Homo sapiens, UniProt P45983); test: KINOMEscan competition binding assay, JNK1; parameters: M1/Q384; host or cells: HEK-293; conditions: ratio PoC (off-target)/PoC (MKK4)
In short: as §1
Target sequence in this assay (P45983 1-384 isoform P45983-2): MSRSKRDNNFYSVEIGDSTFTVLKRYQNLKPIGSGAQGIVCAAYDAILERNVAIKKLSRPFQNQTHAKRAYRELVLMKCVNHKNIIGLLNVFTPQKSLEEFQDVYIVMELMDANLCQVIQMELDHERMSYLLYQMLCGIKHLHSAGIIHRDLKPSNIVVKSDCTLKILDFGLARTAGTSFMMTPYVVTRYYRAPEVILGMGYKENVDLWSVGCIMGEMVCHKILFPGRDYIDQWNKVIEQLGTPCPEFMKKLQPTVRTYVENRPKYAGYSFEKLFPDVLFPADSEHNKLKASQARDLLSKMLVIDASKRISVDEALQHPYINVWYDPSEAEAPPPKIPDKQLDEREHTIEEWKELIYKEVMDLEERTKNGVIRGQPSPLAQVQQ

JNK1 [7] = target: T5, JNK1; test: 33PanQinase enzyme assay, JNK1; type: biochemical; parameters: purchased ProQinase GmbH, Freiburg, Germany (33PanQinase Assay Service); conditions: ratio IC50(JNK1)/IC50(MKK4)
In short: as §2
Target sequence in this assay (P45983 whole entry): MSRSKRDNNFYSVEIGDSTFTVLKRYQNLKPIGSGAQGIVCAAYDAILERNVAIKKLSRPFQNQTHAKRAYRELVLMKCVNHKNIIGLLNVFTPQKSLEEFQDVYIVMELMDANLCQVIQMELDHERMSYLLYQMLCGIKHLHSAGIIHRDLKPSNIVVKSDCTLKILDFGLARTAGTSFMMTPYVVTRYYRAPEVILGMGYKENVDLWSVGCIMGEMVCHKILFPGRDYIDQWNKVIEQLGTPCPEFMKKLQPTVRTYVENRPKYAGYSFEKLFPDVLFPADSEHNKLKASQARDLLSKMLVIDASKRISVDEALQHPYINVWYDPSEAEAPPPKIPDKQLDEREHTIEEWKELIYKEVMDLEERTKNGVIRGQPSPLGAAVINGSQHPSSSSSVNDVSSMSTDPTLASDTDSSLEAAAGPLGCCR

MKK7 [8] = target: T4, MKK7; test: 33PanQinase enzyme assay, MKK7; type: biochemical; parameters: purchased ProQinase GmbH, Freiburg, Germany (33PanQinase Assay Service); conditions: ratio IC50(MKK7)/IC50(MKK4)
In short: as §2

Row | MKK4 [% Ctrl @ 100 nM (MKK4 [1]) | selectivity based on % Ctrl @100 nM vs. Braf (BRaf [2]) | IC50 (MKK4 [3]) [µM] | Selectivity Braf, IC50(off-target)/IC50(MKK4) (BRaf [4]) | selectivity based on % Ctrl @100 nM vs. MKK7 (MKK7 [5]) | selectivity based on % Ctrl @100 nM vs. JNK1 (JNK1 [6]) | Selectivity JNK1, IC50(off-target)/IC50(MKK4) (JNK1 [7]) | Selectivity IVIKK7, IC50(off-target)/IC50(MKK4) (MKK7 [8]) | SMILES
1 | +++ (PoC < 1) | +++ (Ratio > 100) | < 0.1 | +++ (IC50(off-target)/IC50(MKK4) > 100) | +++ (Ratio > 100) | +++ (Ratio > 100) | +++ (IC50(off-target)/IC50(MKK4) > 100) | +++ (IC50(off-target)/IC50(MKK4) > 100) | CCCS(=O)(=O)Nc1c(F)ccc(C(=O)c2c[nH]c3ncc(-c4ccc(C)nc4)cc23)c1F [Example 229, N-(2,6-difluoro-3-(5-(6-methylpyridin-3-yl)-1H-pyrrolo[2,3-b]pyridine-3-carbonyl)phenyl)propane-1-sulfonamide]
2 | +++ (PoC < 1) | + (10 ≥ ratio > 3) | 0.1 to 1 | ◯ (3 ≥ IC50(off-target)/IC50(MKK4)) | +++ (Ratio > 100) | +++ (Ratio > 100) | ◯ (3 ≥ IC50(off-target)/IC50(MKK4)) | +++ (IC50(off-target)/IC50(MKK4) > 100) | CCCS(=O)(=O)Nc1ccc(F)c(C(=O)c2c[nH]c3ncc(-c4ccc(S(N)(=O)=O)nc4)cc23)c1F [Example 53]

Row | SMILES | MKK4 [% Ctrl @ 100 nM (MKK4 [1]) | selectivity based on % Ctrl @100 nM vs. Braf (BRaf [2]) | IC50 (MKK4 [3]) [µM] | Selectivity Braf, IC50(off-target)/IC50(MKK4) (BRaf [4]) | selectivity based on % Ctrl @100 nM vs. MKK7 (MKK7 [5]) | selectivity based on % Ctrl @100 nM vs. JNK1 (JNK1 [6]) | Selectivity JNK1, IC50(off-target)/IC50(MKK4) (JNK1 [7]) | Selectivity IVIKK7, IC50(off-target)/IC50(MKK4) (MKK7 [8])
3 | O=C(c1cccc(NS(=O)(=O)Cc2ccccc2)c1F)c1c[nH]c2ncc(-c3ccc(Cl)cc3)cc12 [Example 124, N-(3-(5-(4-chlorophenyl)-1H-pyrrolo[2,3-b]pyridine-3-carbonyl)-2-fluorophenyl)-1-phenylmethanesulfonamide] | + (3 ≤ PoC < 30) | ++ (100 ≥ ratio > 10) | 0.1 to 1 | +++ (IC50(off-target)/IC50(MKK4) > 100) | ++ (100 ≥ ratio > 10) | ++ (100 ≥ ratio > 10) | ◯ (3 ≥ IC50(off-target)/IC50(MKK4)) | +++ (IC50(off-target)/IC50(MKK4) > 100)
4 | CCCS(=O)(=O)Nc1c(F)ccc(C(=O)c2c[nH]c3ncc(-c4ccc(C5CC5)nc4)cc23)c1F [Example 159, N-(3-(5-(6-cyclopropylpyridin-3-yl)-1H-pyrrolo[2,3-b]pyridine-3-carbonyl)-2,6-difluorophenyl)propane-1-sulfonamide] | +++ (PoC < 1) | +++ (Ratio > 100) | < 0.1 | ++ (100 ≥ IC50(off-target)/IC50(MKK4) > 10) | +++ (Ratio > 100) | +++ (Ratio > 100) | +++ (IC50(off-target)/IC50(MKK4) > 100) | +++ (IC50(off-target)/IC50(MKK4) > 100)
5 | CCCS(=O)(=O)Nc1c(F)ccc(C(=O)c2c[nH]c3ncc(-c4cnc(C(F)(F)F)nc4)cc23)c1F [Example 184, N-(2,6-difluoro-3-(5-(2-(trifluoromethyl)pyrimidin-5-yl)-1H-pyrrolo[2,3-b]pyridine-3-carbonyl)phenyl)propane-1-sulfonamide] | +++ (PoC < 1) | +++ (Ratio > 100) | 0.1 to 1 | +++ (IC50(off-target)/IC50(MKK4) > 100) | +++ (Ratio > 100) | +++ (Ratio > 100) | ++ (100 ≥ IC50(off-target)/IC50(MKK4) > 10) | +++ (IC50(off-target)/IC50(MKK4) > 100)

— patent publication US11912701B2, “Protein kinase inhibitors for promoting liver regeneration or reducing or preventing hepatocyte death” (HEPAREGENIX GMBH, priority 2018, dated 2024)
